Test results reported in paper PMC4490784, “Compensatory induction of MYC expression by sustained CDK9 inhibition via a BRD4-dependent mechanism” (eLife, 2015).

What was measured:
Assay in all cases: KINOMEscan binding assay
[1] = molecular target: T1, JAK3(JH1domain-catalytic) (Homo sapiens, UniProt P52333); settings: read-out: % Retention on Solid Support
T1 construct: JAK3(JH1domain-catalytic); purchased DiscoveRx KINOMEscan
How it was run: (§1)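 Binding, not catalytic activity, is measured: the compound competes with an active-site-directed ligand. Screening concentrations were 1 and 10 µM, applied across more than 400 kinases.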

MST2 = molecular target: T2, MST2 (Homo sapiens, UniProt Q13188); settings: read-out: % Retention on Solid Support
T2 construct: purchased DiscoveRx KINOMEscan
How it was run: as §1

RET(V804L) = molecular target: T3, RET(V804L) (Homo sapiens, UniProt P07949, V804L); settings: read-out: % Retention on Solid Support
T3 construct: purchased DiscoveRx KINOMEscan
How it was run: as §1

EPHA4 = molecular target: T4, EPHA4 (Homo sapiens, UniProt P54764); settings: read-out: % Retention on Solid Support
T4 construct: purchased DiscoveRx KINOMEscan
How it was run: as §1

PCTK1 = molecular target: T5, PCTK1 (Homo sapiens, UniProt Q00536); settings: read-out: % Retention on Solid Support
T5 construct: purchased DiscoveRx KINOMEscan
How it was run: as §1

PYK2 = molecular target: T6, PYK2 (Homo sapiens, UniProt Q14289); settings: read-out: % Retention on Solid Support
T6 construct: purchased DiscoveRx KINOMEscan
How it was run: as §1

PAK6 = molecular target: T7, PAK6 (Homo sapiens, UniProt Q9NQU5); settings: read-out: % Retention on Solid Support
T7 construct: purchased DiscoveRx KINOMEscan
T7 sequence (Q9NQU5 whole entry): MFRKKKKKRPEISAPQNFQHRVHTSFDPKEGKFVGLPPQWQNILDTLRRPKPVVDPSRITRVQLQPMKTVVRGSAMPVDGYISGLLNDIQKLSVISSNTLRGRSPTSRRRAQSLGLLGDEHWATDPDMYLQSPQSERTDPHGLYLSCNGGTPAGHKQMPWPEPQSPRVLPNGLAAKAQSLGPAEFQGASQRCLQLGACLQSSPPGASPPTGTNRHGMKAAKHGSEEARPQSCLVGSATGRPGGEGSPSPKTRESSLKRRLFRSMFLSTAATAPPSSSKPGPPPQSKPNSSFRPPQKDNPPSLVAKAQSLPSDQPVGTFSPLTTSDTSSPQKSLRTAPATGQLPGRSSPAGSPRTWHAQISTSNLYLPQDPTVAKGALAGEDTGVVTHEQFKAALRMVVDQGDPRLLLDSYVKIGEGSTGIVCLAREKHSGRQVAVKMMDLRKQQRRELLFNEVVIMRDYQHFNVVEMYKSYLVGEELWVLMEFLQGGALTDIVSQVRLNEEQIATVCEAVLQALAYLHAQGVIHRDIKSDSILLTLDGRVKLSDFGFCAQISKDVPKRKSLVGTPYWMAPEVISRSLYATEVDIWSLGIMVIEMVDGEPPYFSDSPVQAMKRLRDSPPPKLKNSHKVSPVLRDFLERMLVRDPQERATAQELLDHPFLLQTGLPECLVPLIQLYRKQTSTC
How it was run: as §1

PIK3CA(E545A) = molecular target: T8, PIK3CA(E545A) (Homo sapiens, UniProt P42336, E545A); settings: read-out: % Retention on Solid Support
T8 construct: purchased DiscoveRx KINOMEscan
How it was run: as §1

FLT4 = molecular target: T9, FLT4 (Homo sapiens, UniProt P35916); settings: read-out: % Retention on Solid Support
T9 construct: purchased DiscoveRx KINOMEscan
How it was run: as §1

ACVR1 = molecular target: T10, ACVR1 (Homo sapiens, UniProt Q04771); settings: read-out: % Retention on Solid Support
T10 construct: purchased DiscoveRx KINOMEscan
How it was run: as §1

PLK2 = molecular target: T11, PLK2 (Homo sapiens, UniProt Q9NYY3)
T11 construct: purchased DiscoveRx KINOMEscan
How it was run: as §1

RET = molecular target: T12, RET (Homo sapiens, UniProt P07949); settings: read-out: % Retention on Solid Support
T12 construct: purchased DiscoveRx KINOMEscan
How it was run: as §1

PKN1 = molecular target: T13, PKN1 (Homo sapiens, UniProt Q16512); settings: read-out: % Retention on Solid Support
T13 construct: purchased DiscoveRx KINOMEscan
T13 sequence (Q16512 whole entry): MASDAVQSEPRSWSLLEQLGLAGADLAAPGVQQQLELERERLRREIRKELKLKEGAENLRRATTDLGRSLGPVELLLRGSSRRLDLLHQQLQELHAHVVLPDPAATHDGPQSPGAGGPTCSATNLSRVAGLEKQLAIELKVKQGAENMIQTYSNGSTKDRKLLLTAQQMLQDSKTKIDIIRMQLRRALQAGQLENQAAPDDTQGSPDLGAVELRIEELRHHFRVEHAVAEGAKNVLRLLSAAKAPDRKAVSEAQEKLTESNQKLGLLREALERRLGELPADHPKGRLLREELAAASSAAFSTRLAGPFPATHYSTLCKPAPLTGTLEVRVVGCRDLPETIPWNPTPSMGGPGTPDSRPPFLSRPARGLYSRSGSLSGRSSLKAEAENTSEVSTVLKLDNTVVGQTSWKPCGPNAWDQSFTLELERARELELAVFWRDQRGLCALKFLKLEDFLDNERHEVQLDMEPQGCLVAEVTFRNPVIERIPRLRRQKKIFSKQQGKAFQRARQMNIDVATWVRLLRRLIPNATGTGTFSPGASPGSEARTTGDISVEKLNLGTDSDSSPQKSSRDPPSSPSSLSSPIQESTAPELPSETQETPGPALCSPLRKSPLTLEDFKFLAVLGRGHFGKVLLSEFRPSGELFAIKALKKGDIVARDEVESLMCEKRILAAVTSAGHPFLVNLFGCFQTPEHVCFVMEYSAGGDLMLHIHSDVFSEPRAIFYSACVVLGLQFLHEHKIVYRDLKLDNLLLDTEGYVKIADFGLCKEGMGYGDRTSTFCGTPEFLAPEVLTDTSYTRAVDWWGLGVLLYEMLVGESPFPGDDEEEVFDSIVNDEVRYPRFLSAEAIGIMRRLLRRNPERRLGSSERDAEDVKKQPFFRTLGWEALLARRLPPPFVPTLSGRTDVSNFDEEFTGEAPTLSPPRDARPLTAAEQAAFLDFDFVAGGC
How it was run: as §1

CDKL3 = molecular target: T14, CDKL3 (Homo sapiens, UniProt Q8IVW4); settings: read-out: % Retention on Solid Support
T14 construct: purchased DiscoveRx KINOMEscan
T14 sequence (Q8IVW4 whole entry): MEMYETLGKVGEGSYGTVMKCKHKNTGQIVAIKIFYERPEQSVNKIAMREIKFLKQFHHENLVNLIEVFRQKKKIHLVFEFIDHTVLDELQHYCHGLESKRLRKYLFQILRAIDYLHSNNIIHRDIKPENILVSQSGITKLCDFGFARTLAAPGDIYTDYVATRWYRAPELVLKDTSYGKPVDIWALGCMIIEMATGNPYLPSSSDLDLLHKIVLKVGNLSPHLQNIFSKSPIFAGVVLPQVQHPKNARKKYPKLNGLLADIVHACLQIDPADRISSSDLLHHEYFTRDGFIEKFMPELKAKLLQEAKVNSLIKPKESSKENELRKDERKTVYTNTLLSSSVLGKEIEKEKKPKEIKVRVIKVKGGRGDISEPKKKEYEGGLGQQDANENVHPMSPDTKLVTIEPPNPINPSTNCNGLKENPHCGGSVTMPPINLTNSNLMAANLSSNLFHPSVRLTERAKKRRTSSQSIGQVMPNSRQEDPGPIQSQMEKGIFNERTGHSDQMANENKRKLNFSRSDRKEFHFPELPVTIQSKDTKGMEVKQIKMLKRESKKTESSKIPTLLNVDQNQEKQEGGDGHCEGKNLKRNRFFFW
How it was run: as §1

[2] = molecular target: T15, ABL1(H396P)-nonphosphorylated (Homo sapiens, UniProt P00519, H396P); settings: read-out: % Retention on Solid Support
T15 construct: purchased DiscoveRx KINOMEscan
How it was run: as §1

CDK5 = molecular target: T16, CDK5 (Homo sapiens, UniProt Q00535); settings: read-out: % Retention on Solid Support
T16 construct: purchased DiscoveRx KINOMEscan
How it was run: as §1

ERK2 = molecular target: T17, ERK2 (Homo sapiens, UniProt P28482); settings: read-out: % Retention on Solid Support
T17 construct: purchased DiscoveRx KINOMEscan
T17 sequence (P28482 whole entry): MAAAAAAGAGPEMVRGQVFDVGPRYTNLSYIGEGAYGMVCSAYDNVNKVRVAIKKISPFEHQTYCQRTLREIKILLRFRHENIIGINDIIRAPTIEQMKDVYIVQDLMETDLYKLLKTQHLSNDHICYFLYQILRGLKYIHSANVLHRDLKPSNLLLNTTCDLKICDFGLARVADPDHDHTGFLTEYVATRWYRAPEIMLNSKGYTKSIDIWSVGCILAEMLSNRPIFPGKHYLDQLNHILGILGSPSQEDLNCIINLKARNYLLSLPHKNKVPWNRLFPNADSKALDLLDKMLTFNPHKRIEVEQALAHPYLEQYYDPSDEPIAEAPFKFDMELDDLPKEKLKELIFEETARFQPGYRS
How it was run: as §1

PKMYT1 = molecular target: T18, PKMYT1 (Homo sapiens, UniProt Q99640)
T18 construct: purchased DiscoveRx KINOMEscan
T18 sequence (Q99640 whole entry): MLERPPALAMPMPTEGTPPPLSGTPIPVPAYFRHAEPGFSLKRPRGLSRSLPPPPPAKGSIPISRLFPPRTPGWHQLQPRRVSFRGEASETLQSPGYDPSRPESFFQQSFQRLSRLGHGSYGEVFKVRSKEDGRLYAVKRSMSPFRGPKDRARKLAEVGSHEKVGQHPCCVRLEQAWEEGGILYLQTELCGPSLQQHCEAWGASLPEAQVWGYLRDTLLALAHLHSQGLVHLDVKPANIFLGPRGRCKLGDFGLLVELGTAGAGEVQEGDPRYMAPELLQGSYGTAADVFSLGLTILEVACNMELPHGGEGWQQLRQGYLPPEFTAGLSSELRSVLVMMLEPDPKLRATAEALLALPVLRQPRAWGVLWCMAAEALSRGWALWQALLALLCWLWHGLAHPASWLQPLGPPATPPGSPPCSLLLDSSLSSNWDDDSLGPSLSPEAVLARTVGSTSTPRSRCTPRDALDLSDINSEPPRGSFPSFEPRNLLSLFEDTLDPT
How it was run: as §1

EPHB1 = molecular target: T19, EPHB1 (Homo sapiens, UniProt P54762); settings: read-out: % Retention on Solid Support
T19 construct: purchased DiscoveRx KINOMEscan
How it was run: as §1

IRAK3 = molecular target: T20, IRAK3 (Homo sapiens, UniProt Q9Y616); settings: read-out: % Retention on Solid Support
T20 construct: purchased DiscoveRx KINOMEscan
T20 sequence (Q9Y616 whole entry): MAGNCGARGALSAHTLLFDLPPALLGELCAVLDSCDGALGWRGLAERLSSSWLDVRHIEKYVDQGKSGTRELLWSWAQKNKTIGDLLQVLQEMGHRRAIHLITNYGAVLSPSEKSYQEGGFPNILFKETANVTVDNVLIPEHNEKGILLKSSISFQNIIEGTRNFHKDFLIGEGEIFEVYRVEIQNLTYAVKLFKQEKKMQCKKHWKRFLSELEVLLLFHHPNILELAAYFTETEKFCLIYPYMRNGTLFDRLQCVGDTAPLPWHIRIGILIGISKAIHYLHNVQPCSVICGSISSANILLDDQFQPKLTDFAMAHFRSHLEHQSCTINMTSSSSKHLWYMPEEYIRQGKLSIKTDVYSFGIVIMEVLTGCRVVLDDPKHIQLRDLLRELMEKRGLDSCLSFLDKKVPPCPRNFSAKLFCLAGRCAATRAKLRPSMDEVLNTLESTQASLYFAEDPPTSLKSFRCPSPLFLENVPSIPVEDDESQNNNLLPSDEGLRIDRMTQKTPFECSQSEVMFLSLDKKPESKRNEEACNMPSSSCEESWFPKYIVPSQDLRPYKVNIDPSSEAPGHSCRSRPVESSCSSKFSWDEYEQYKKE
How it was run: as §1

TRKC = molecular target: T21, TRKC (Homo sapiens, UniProt Q16288); settings: read-out: % Retention on Solid Support
T21 construct: purchased DiscoveRx KINOMEscan
T21 sequence (Q16288 32-839): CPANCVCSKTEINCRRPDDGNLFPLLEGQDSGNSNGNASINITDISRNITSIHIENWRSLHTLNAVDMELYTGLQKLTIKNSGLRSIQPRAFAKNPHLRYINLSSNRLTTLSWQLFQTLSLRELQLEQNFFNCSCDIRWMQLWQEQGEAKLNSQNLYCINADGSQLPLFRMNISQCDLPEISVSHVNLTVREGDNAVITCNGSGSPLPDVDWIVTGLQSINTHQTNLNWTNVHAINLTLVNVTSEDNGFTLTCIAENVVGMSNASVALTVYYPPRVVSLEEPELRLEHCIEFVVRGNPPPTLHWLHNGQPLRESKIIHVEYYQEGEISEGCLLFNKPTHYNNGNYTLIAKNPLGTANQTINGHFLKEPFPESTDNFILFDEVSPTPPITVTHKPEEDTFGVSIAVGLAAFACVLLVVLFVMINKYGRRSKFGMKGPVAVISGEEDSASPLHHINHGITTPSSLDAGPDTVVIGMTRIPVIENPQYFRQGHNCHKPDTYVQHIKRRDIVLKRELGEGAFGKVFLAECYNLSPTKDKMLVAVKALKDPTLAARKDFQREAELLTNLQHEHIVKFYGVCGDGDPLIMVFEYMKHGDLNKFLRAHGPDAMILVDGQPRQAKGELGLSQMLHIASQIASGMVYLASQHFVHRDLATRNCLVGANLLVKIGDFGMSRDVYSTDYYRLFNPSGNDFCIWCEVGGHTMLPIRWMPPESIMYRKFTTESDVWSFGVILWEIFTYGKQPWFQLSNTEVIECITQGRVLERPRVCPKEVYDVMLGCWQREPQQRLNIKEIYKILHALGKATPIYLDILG
How it was run: as §1

PDPK1 = molecular target: T22, PDPK1 (Homo sapiens, UniProt O15530); settings: read-out: % Retention on Solid Support
T22 construct: purchased DiscoveRx KINOMEscan
T22 sequence (O15530 1-556): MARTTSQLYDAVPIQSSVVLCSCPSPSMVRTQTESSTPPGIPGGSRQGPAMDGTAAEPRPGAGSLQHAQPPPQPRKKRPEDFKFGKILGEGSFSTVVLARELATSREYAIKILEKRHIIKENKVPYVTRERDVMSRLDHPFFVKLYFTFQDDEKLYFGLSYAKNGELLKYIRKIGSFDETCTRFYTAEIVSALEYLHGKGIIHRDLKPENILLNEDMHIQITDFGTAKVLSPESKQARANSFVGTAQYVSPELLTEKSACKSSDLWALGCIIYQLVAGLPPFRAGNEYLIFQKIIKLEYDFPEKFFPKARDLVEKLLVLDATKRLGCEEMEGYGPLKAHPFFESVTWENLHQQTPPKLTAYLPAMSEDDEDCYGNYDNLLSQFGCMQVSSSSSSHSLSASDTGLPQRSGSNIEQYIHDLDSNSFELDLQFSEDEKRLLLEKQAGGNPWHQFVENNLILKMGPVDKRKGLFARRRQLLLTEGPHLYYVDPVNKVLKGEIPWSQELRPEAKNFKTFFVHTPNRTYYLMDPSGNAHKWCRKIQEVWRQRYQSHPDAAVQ
How it was run: as §1

PFCDPK1(P.falciparum) = molecular target: T23, PFCDPK1(P.falciparum) (Plasmodium falciparum, UniProt P62344); settings: 1 µM i-CDK9; read-out: % Retention on Solid Support
T23 construct: purchased DiscoveRx KINOMEscan
How it was run: as §1

T1 sequence (P52333 813-1124 limits assumed): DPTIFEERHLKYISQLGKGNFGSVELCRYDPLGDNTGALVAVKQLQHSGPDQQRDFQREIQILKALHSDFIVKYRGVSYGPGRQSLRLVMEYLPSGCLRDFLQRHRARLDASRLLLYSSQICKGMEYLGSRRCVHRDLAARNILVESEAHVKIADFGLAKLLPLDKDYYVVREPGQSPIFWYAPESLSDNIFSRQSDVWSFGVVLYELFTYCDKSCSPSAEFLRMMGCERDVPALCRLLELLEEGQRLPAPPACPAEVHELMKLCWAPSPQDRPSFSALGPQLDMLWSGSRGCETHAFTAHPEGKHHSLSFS

How did the remaining binding at 1 µM ([1]; 1 µM i-CDK9) turn out when `N[C@H]1CC[C@H](Nc2cc(-c3cccc(NCc4cccc(F)c4)n3)c(Cl)cn2)CC1` [i-CDK9, N2′-(trans-4-aminocyclohexyl)-5′-chloro-N6-(3-fluorobenzyl)-2,4′-bipyridine-2′,6-diamine] was run?
The remaining binding at 1 µM was 100%.

What about the remaining binding at 10 µM ([1]; 10 µM i-CDK9) of the same compound?
Its remaining binding at 10 µM is 100%.

And the remaining binding at 1 µM (MST2; 1 µM i-CDK9)?
Its remaining binding at 1 µM is 72%.

And the remaining binding at 10 µM (MST2; 10 µM i-CDK9)?
The remaining binding at 10 µM was 100%.

And the remaining binding at 1 µM (RET(V804L); 1 µM i-CDK9)?
Its remaining binding at 1 µM is 100%.

What about the remaining binding at 10 µM (RET(V804L); 10 µM i-CDK9) of the same compound?
The remaining binding at 10 µM was 79%.

What about the remaining binding at 1 µM (EPHA4; 1 µM i-CDK9) of the same compound?
Its remaining binding at 1 µM is 100%.

And the remaining binding at 10 µM (EPHA4; 10 µM i-CDK9)?
The remaining binding at 10 µM was 89%.

And the remaining binding at 1 µM (PCTK1; 1 µM i-CDK9)?
The remaining binding at 1 µM was 19%.

And the remaining binding at 10 µM (PCTK1; 10 µM i-CDK9)?
The remaining binding at 10 µM was 0.85%.

And the remaining binding at 1 µM (PYK2; 1 µM i-CDK9)?
The remaining binding at 1 µM was 100%.

And the remaining binding at 10 µM (PYK2; 10 µM i-CDK9)?
Its remaining binding at 10 µM is 100%.

And the remaining binding at 1 µM (PAK6; 1 µM i-CDK9)?
Its remaining binding at 1 µM is 100%.

What about the remaining binding at 10 µM (PAK6; 10 µM i-CDK9) of the same compound?
Its remaining binding at 10 µM is 100%.

What about the remaining binding at 1 µM (PIK3CA(E545A); 1 µM i-CDK9) of the same compound?
Its remaining binding at 1 µM is 100%.

What about the remaining binding at 10 µM (PIK3CA(E545A); 10 µM i-CDK9) of the same compound?
Its remaining binding at 10 µM is 100%.

What about the remaining binding at 1 µM (FLT4; 1 µM i-CDK9) of the same compound?
Its remaining binding at 1 µM is 68%.

What about the remaining binding at 10 µM (FLT4; 10 µM i-CDK9) of the same compound?
The remaining binding at 10 µM was 72%.

What about the remaining binding at 1 µM (ACVR1; 1 µM i-CDK9) of the same compound?
Its remaining binding at 1 µM is 100%.

What about the remaining binding at 10 µM (ACVR1; 10 µM i-CDK9) of the same compound?
The remaining binding at 10 µM was 100%.

And the “% Retention on Solid Support” value (PLK2; 1 µM i-CDK9)?
Its value is 100%.

What about the “% Retention on Solid Support” value (PLK2; 10 µM i-CDK9) of the same compound?
Its value is 100%.

What about the remaining binding at 1 µM (RET; 1 µM i-CDK9) of the same compound?
The remaining binding at 1 µM was 100%.

What about the remaining binding at 10 µM (RET; 10 µM i-CDK9) of the same compound?
The remaining binding at 10 µM was 100%.

What about the remaining binding at 1 µM (PKN1; 1 µM i-CDK9) of the same compound?
Its remaining binding at 1 µM is 73%.

And the remaining binding at 10 µM (PKN1; 10 µM i-CDK9)?
The remaining binding at 10 µM was 100%.

What about the remaining binding at 1 µM (CDKL3; 1 µM i-CDK9) of the same compound?
Its remaining binding at 1 µM is 44%.

What about the remaining binding at 10 µM (CDKL3; 10 µM i-CDK9) of the same compound?
The remaining binding at 10 µM was 23%.

And the remaining binding at 1 µM ([2]; 1 µM i-CDK9)?
Its remaining binding at 1 µM is 45%.

And the remaining binding at 10 µM ([2]; 10 µM i-CDK9)?
The remaining binding at 10 µM was 97%.

And the remaining binding at 1 µM (CDK5; 1 µM i-CDK9)?
Its remaining binding at 1 µM is 100%.

And the remaining binding at 10 µM (CDK5; 10 µM i-CDK9)?
The remaining binding at 10 µM was 81%.

And the remaining binding at 1 µM (ERK2; 1 µM i-CDK9)?
The remaining binding at 1 µM was 100%.

What about the remaining binding at 10 µM (ERK2; 10 µM i-CDK9) of the same compound?
The remaining binding at 10 µM was 100%.

And the “% Retention on Solid Support” value (PKMYT1; 1 µM i-CDK9)?
Its value is 100%.

And the “% Retention on Solid Support” value (PKMYT1; 10 µM i-CDK9)?
The value was 93%.

What about the remaining binding at 1 µM (EPHB1; 1 µM i-CDK9) of the same compound?
Its remaining binding at 1 µM is 100%.

What about the remaining binding at 10 µM (EPHB1; 10 µM i-CDK9) of the same compound?
Its remaining binding at 10 µM is 100%.

And the remaining binding at 1 µM (IRAK3; 1 µM i-CDK9)?
The remaining binding at 1 µM was 100%.

What about the remaining binding at 10 µM (IRAK3; 10 µM i-CDK9) of the same compound?
Its remaining binding at 10 µM is 88%.

What about the remaining binding at 1 µM (TRKC; 1 µM i-CDK9) of the same compound?
Its remaining binding at 1 µM is 63%.

And the remaining binding at 10 µM (TRKC; 10 µM i-CDK9)?
Its remaining binding at 10 µM is 95%.

And the remaining binding at 1 µM (PDPK1; 1 µM i-CDK9)?
Its remaining binding at 1 µM is 100%.

And the remaining binding at 10 µM (PDPK1; 10 µM i-CDK9)?
The remaining binding at 10 µM was 90%.

What about the remaining binding at 1 µM (PFCDPK1(P.falciparum)) of the same compound?
The remaining binding at 1 µM was 100%.
